Entries after “also recorded” stand apart in the source; their conditions may differ. Where no end group is shown, it is not given here.
B1: SLP-I: protease inhibitor and member of the antileukoprotease superfamily, first isolated from human saliva (protein, UniProt P03973 26-132, looked up)
Antileukoproteinase: SGKSFKAGVCPPKKSAQCLRYKKPECQSDWQCPGKKRCCPDTCGIKCLDPVDTPNPTRRKPGKCPVTYGQCLMLNPPNFCEMDGQCKRDLKCCMGMCGKSCVSPVKA

Columns and labels:
MT4 cells = assay: Cytokine responses of MT4 cells after treatment with trappin-2; format: cell-based
Description: (§1) Finally, the ability of trappin-2 (6.0 kDa form) to inhibit HIV infection in an established HIV infection model was examined. A highly infectable T cell line (MT4) was used to assay the effect of trappin-2 inhibition on HIV HxBc2 replication 13,14,15. HIV inhibition experiments were performed by preincubating trappin-2 with either the virus, or target cells. […] In our in vitro system a 5 fold increase in trappin-2 (FIG. 4b) had significant effects on HIV replication. Trappin-2 has previously been reported to have immunomodulatory effects and thus its influence on immune regulation is of interest. To determine if the HIV inhibitory effects of trappin-2 are the result of induction of anti-viral cytokines such as IFN-γ, cytokine responses of MT4 cells after treatment with trappin-2 were measured.

HIV HxBc2 = HIV HxBc2 viral replication in MT4 cells (RT activity in supernatants, p24 western blot); format: cell-based
Description: FIG. 4. Trappin-2 inhibits HIV viral replication in an in vitro system. A) We tested HIV HxBc2 in an established viral replication model system and measured the effect of pretreatment of recombinant human trappin-2 (6.0 kDa form) on cells in viral infection 15,19. Briefly, 1 or 5 ug/mL of trappin-2 was incubated with MT4 cells for 1 hour. Then equivalent amounts of virus (0.02 cpm/cell) were added to the cells in the presence of trappin-2 for 2 hours. Infected cells were washed and cultured in the absence of trappin-2. As a control, 10 uM of AZT was used. Viral production in supernatants was evaluated by RT activity after 6 days of culture. […] B) The experiment was repeated with an additional assay of trappin-2 preincubated with cells and subsequently supplemented into the culture media (lane 6). Supernatants were harvested at Day 6 of infection and assayed for both RT activity and western blot analysis for HIV p24. Error bars are mean±SEM.
as §1

T cell tropic (X4) HIV = settings: T cell tropic (X4) viruses; cited from earlier work
[1] = test system: macrophage tropic (R5) HIV; settings: macrophage tropic (R5) viruses; cited from earlier work

Row | Molecule | induction of cytokines (anti-viral cytokines such as IFN-γ) (MT4 cells) | HIV viral replication (RT activity in supernatants) (HIV HxBc2; MT4 cells pretreated 1 hour with 1 or 5 ug/mL trappin-2 (physiological concentrations), virus 2 hours, washed, cultured without trappin-2, day 6) | inhibition of HIV replication (HIV HxBc2; simultaneous addition of trappin-2 and virus to target cells, compared with 1-hour pre-exposure) | HIV viral replication (RT activity, p24 western blot) (HIV HxBc2; trappin-2 preincubated 1 hour with cells and added back into the culture media, day 6) | prevention of infection of T cells (T cell tropic (X4) HIV) | inhibition of HIV infection of macrophage cells [1]
1 | trappin-2: recombinant human trappin-2 (6.0 kDa form), serine protease inhibiter of the Trappin family, also known as elafin/SKALP (AQEPVKGPVSTKPGSCPIILIRCAMLNPPNRCLKDTDCPGIKKCCEGSCGMACFVPQ; not fully specified (bridges); also: four disulfide bridges, pairing not given here; UniProt P19957 61-117, looked up) | No induction of cytokines was detected | greatly reduced HIV viral replication in a dose dependent manner; also recorded: significantly reduced virus replication | significantly less inhibition | even more dramatic decrease in viral replication |  | 
2 | B1 |  |  |  |  | does not prevent infection of T cells | inhibit HIV infection of macrophage cells
